Results as given in the NIST ThermoML archive (doi:10.1021/je2013704).

Assay: mn = molality of the nth substance listed, in mol/kg
Conditions: Liquid, Vibrating tube method

[Cl-].[Cl-].[Mg+2] [magnesium chloride] + O
mass density [kg/m3]
Conditions | 283.15 K | 298.12 K | 323.07 K | 348.04 K | 372.99 K | 397.97 K | 422.94 K | 447.94 K | 472.96 K
1050 kPa, m1 = 1 | 1074.73 | 1070.86 | 1061.56 | 1049.32 | 1034.76 | 1017.83 | 999.03 | – | –
1050 kPa, m1 = 5 | – | 1298.01 | 1288.53 | 1278.25 | 1267.42 | 1255.66 | 1243.3 | 1230.19 | –
1100 kPa, m1 = 3 | 1200.48 | 1194.98 | 1185.53 | 1174.63 | 1162.6 | 1149.22 | 1134.62 | 1118.93 | –
10020 kPa, m1 = 1 | 1078.32 | 1074.43 | 1065.03 | 1052.8 | 1038.36 | 1021.72 | 1003.28 | 982.73 | 960.31
10020 kPa, m1 = 5 | – | 1300.39 | 1290.86 | 1280.63 | 1269.83 | 1258.16 | 1245.98 | 1232.81 | 1219.23
10100 kPa, m1 = 3 | 1203.26 | 1197.76 | 1188.36 | 1177.48 | 1165.51 | 1152.27 | 1137.91 | 1122.27 | 1105.72
19970 kPa, m1 = 1 | 1082.31 | 1078.17 | 1068.73 | 1056.56 | 1042.33 | 1025.91 | 1007.77 | 987.82 | 965.92
19970 kPa, m1 = 5 | – | 1302.84 | 1293.39 | 1283.18 | 1272.48 | 1260.88 | 1248.69 | 1235.76 | 1222.3
20100 kPa, m1 = 3 | 1206.45 | 1200.84 | 1191.36 | 1180.55 | 1168.64 | 1155.47 | 1141.36 | 1126 | 1109.63
29900 kPa, m1 = 1 | 1086.21 | 1081.96 | 1072.46 | 1060.31 | 1046.17 | 1029.97 | 1012.16 | 992.59 | 971.25
29900 kPa, m1 = 5 | – | 1305.37 | 1295.97 | 1285.71 | 1275.12 | 1263.46 | 1251.46 | 1238.61 | 1225.27
30100 kPa, m1 = 3 | 1209.48 | 1203.93 | 1194.33 | 1183.56 | 1171.77 | 1158.76 | 1144.67 | 1129.62 | 1113.5
39830 kPa, m1 = 1 | 1090.04 | 1085.7 | 1076 | 1063.92 | 1049.91 | 1033.96 | 1016.47 | 997.27 | 976.5
39830 kPa, m1 = 5 | – | 1307.91 | 1298.44 | 1288.26 | 1277.64 | 1266.15 | 1254.16 | 1241.42 | 1228.28
40100 kPa, m1 = 3 | 1212.45 | 1206.91 | 1197.32 | 1186.6 | 1174.82 | 1162.02 | 1147.96 | 1133.07 | 1117.27
49760 kPa, m1 = 1 | 1093.73 | 1089.34 | 1079.49 | 1067.47 | 1053.59 | 1037.86 | 1020.62 | 1001.73 | 981.41
49760 kPa, m1 = 5 | – | 1310.34 | 1300.8 | 1290.69 | 1280.15 | 1268.74 | 1256.84 | 1244.17 | 1231.18
50100 kPa, m1 = 3 | 1215.49 | 1209.79 | 1200.25 | 1189.47 | 1177.87 | 1165.1 | 1151.23 | 1136.51 | 1120.96
59680 kPa, m1 = 1 | 1097.42 | 1092.83 | 1082.98 | 1070.97 | 1057.17 | 1041.6 | 1024.61 | 1006.15 | 986.2
59680 kPa, m1 = 5 | – | 1312.81 | 1303.27 | 1293.17 | 1282.6 | 1271.25 | 1259.41 | 1246.88 | 1234.02
60100 kPa, m1 = 3 | 1218.46 | 1212.66 | 1203.13 | 1192.42 | 1180.77 | 1168.09 | 1154.39 | 1139.92 | 1124.6
68120 kPa, m1 = 1 | 1100.57 | 1095.78 | 1085.82 | 1073.88 | 1060.13 | 1044.71 | 1027.95 | 1009.73 | 990.1
68120 kPa, m1 = 5 | – | 1314.82 | 1305.22 | 1295.26 | 1284.68 | 1273.36 | 1261.6 | 1249.11 | 1236.38
68600 kPa, m1 = 3 | 1220.98 | 1215.18 | 1205.42 | 1194.89 | 1183.21 | 1170.63 | 1157.07 | 1142.62 | 1127.48

[Cl-].[K+] [potassium chloride] + O
mass density [kg/m3]
Conditions | 298.12 K | 323.07 K | 348.04 K | 372.99 K | 397.97 K | 422.94 K | 447.94 K | 472.96 K
900 kPa, m1 = 1.06 | 1044.2 | 1034.14 | 1020.74 | 1004.76 | 986.31 | 965.57 | 942.89 | –
900 kPa, m1 = 3.15 | 1124.07 | 1112.58 | 1098.82 | 1083.32 | 1065.9 | 1046.73 | 1025.62 | –
900 kPa, m1 = 4.49 | 1168.21 | 1156.09 | 1142.21 | 1126.88 | 1109.9 | 1091.46 | 1071.39 | –
9900 kPa, m1 = 1.06 | 1047.96 | 1037.83 | 1024.46 | 1008.64 | 990.53 | 970.25 | 948.08 | 923.68
9900 kPa, m1 = 3.15 | 1127.47 | 1115.91 | 1102.28 | 1086.89 | 1069.71 | 1050.87 | 1030.11 | 1007.94
9900 kPa, m1 = 4.49 | 1171.42 | 1159.3 | 1145.43 | 1130.26 | 1113.48 | 1095.41 | 1075.5 | 1054.54
19900 kPa, m1 = 1.06 | 1052.02 | 1041.82 | 1028.51 | 1012.91 | 995.11 | 975.13 | 953.62 | 929.93
19900 kPa, m1 = 3.15 | 1131.16 | 1119.53 | 1105.97 | 1090.74 | 1073.82 | 1055.23 | 1034.96 | 1013.25
19900 kPa, m1 = 4.49 | 1174.92 | 1162.77 | 1148.98 | 1133.92 | 1117.4 | 1099.54 | 1080.06 | 1059.47
29900 kPa, m1 = 1.06 | 1056.08 | 1045.67 | 1032.5 | 1017.11 | 999.53 | 979.97 | 958.88 | 935.86
29900 kPa, m1 = 3.15 | 1134.81 | 1123.11 | 1109.59 | 1094.53 | 1077.73 | 1059.51 | 1039.57 | 1018.38
29900 kPa, m1 = 4.49 | 1178.38 | 1166.16 | 1152.52 | 1137.58 | 1121.12 | 1103.53 | 1084.38 | 1064.17
39900 kPa, m1 = 1.06 | 1060 | 1049.58 | 1036.42 | 1021.1 | 1003.82 | 984.63 | 963.97 | 941.62
39900 kPa, m1 = 3.15 | 1138.35 | 1126.71 | 1113.24 | 1098.25 | 1081.65 | 1063.66 | 1044.09 | 1023.39
39900 kPa, m1 = 4.49 | 1181.79 | 1169.63 | 1155.93 | 1141.11 | 1124.86 | 1107.49 | 1088.62 | 1068.85
49900 kPa, m1 = 1.06 | 1063.86 | 1053.35 | 1040.18 | 1025.08 | 1008.02 | 989.18 | 968.88 | 947.07
49900 kPa, m1 = 3.15 | 1141.9 | 1130.16 | 1116.68 | 1101.91 | 1085.49 | 1067.79 | 1048.45 | 1028.19
49900 kPa, m1 = 4.49 | 1185.09 | 1172.93 | 1159.38 | 1144.58 | 1128.56 | 1111.34 | 1092.74 | 1073.32
59900 kPa, m1 = 1.06 | 1067.62 | 1057.01 | 1043.91 | 1028.91 | 1012.1 | 993.52 | 973.66 | 952.36
59900 kPa, m1 = 3.15 | 1145.28 | 1133.6 | 1120.15 | 1105.38 | 1089.26 | 1071.77 | 1052.77 | 1032.84
59900 kPa, m1 = 4.49 | 1188.28 | 1176.14 | 1162.56 | 1147.95 | 1132.08 | 1115.08 | 1096.73 | 1077.68
68400 kPa, m1 = 1.06 | 1070.84 | 1060.07 | 1047.14 | 1032.17 | 1015.46 | 997.11 | 977.57 | 956.79
68400 kPa, m1 = 3.15 | 1148.2 | 1136.35 | 1123.07 | 1108.37 | 1092.3 | 1075 | 1056.27 | 1036.57
68400 kPa, m1 = 4.49 | 1191.12 | 1178.8 | 1165.39 | 1150.77 | 1135 | 1118.18 | 1100.1 | 1081.18
